According to patent US7022667B2, “O-derivatized nocathiacin derivatives” (Bristol-Myers Squibb Company, priority 2002, dated 2006):
≈ marks a conversion by molar mass, not a printed value.

Experiments:
Experiment in all cases: MIC, broth micro dilution assay (NCCLS)
Type in all cases: cell-based
[1] = tested on: Enterococcus faecalis A20688; settings: Mueller-Hinton medium, 35° C., 18 hours
Procedure: (§1) The serial broth dilution method used Mueller-Hinton medium except for the Streptococcus pneumoniae which was tested in 50% Mueller-Hinton medium and 50% Todd Hewitt medium. The final bacterial inoculate contained approximately 5×10^5 cfu/well and was run on microtiter plates. The volume of each well was 100 μL and the plates were incubated at 35° C. for 18 hours in ambient air. The MIC was defined as the lowest drug concentration that prevented visible growth.

[2] = tested on: Staphylococcus aureus A15090; settings: Mueller-Hinton medium, 35° C., 18 hours
Procedure: as §1

[3] = tested on: Streptococcus pneumoniae A28272; settings: 50% Mueller-Hinton medium and 50% Todd Hewitt medium, 35° C., 18 hours
Procedure: as §1

Compound	MIC (μg/mL) Enterococcus faecalis A20688 [1]	MIC (μg/mL) Staphylococcus aureus A15090 [2]	MIC (μg/mL) Streptococcus pneumoniae A28272 [3]
C=C(NC(=O)c1csc(-c2nc3c(cc2OC)-c2nc(cs2)C(=O)NC(C(C)O)C(=O)NC(=C(C)OC)c2nc(cs2)C(=O)NC2c4nc(cs4)C(=O)NC(COC(=O)c4c5c6c(cccc6n4O)COC(=O)C(OC4CC(C)(O)C(N(C)C)C(C)O4)C2OC5)c2nc-3cs2)n1)C(N)=O (stereo not drawn) [Example 1]	0.015 µg/mL (≈ 0.0103 µM)	0.015 µg/mL (≈ 0.0103 µM)	0.003 µg/mL (≈ 0.00207 µM)
C=C(NC(=O)c1csc(-c2nc3c(cc2OCC(O)CO)-c2nc(cs2)C(=O)NC(C(C)O)C(=O)NC(=C(C)OC)c2nc(cs2)C(=O)NC2c4nc(cs4)C(=O)NC(COC(=O)c4c5c6c(cccc6n4O)COC(=O)C(OC4CC(C)(O)C(N(C)C)C(C)O4)C2OC5)c2nc-3cs2)n1)C(N)=O (stereo not drawn) [Example 3]	2.0 µg/mL (≈ 1.32 µM)	1.0 µg/mL (≈ 0.662 µM)	0.25 µg/mL (≈ 0.165 µM)
C=C(NC(=O)c1csc(-c2nc3c(cc2O)-c2nc(cs2)C(=O)NC(C(C)O)C(=O)NC(=C(C)OC)c2nc(cs2)C(=O)NC2c4nc(cs4)C(=O)NC(COC(=O)c4c5c6c(cccc6n4OC)COC(=O)C(OC4CC(C)(O)C(N(C)C)C(C)O4)C2OC5)c2nc-3cs2)n1)C(N)=O (stereo not drawn) [Example 6]	0.125 µg/mL (≈ 0.0861 µM)	0.03 µg/mL (≈ 0.0207 µM)	0.003 µg/mL (≈ 0.00207 µM)
C=C(NC(=O)c1csc(-c2nc3c(cc2O)-c2nc(cs2)C(=O)NC(C(C)O)C(=O)NC(=C(C)OC)c2nc(cs2)C(=O)NC2c4nc(cs4)C(=O)NC(COC(=O)c4c5c6c(cccc6n4OCCCS(=O)(=O)[O-])COC(=O)C(OC4CC(C)(O)C(N(C)C)C(C)O4)C2OC5)c2nc-3cs2)n1)C(N)=O.[Na+] (stereo not drawn) [Example 7]	0.125 µg/mL	0.125 µg/mL	0.007 µg/mL
C=C(NC(=O)c1csc(-c2nc3c(cc2O)-c2nc(cs2)C(=O)NC(C(C)O)C(=O)NC(=C(C)OC)c2nc(cs2)C(=O)NC2c4nc(cs4)C(=O)NC(COC(=O)c4c5c6c(cccc6n4OCC(N)=O)COC(=O)C(OC4CC(C)(O)C(N(C)C)C(C)O4)C2OC5)c2nc-3cs2)n1)C(N)=O (stereo not drawn) [Example 8]	0.25 µg/mL (≈ 0.167 µM)	0.5 µg/mL (≈ 0.335 µM)	0.03 µg/mL (≈ 0.0201 µM)
C=C(NC(=O)c1csc(-c2nc3c(cc2OCC(N)=O)-c2nc(cs2)C(=O)NC(C(C)O)C(=O)NC(=C(C)OC)c2nc(cs2)C(=O)NC2c4nc(cs4)C(=O)NC(COC(=O)c4c5c6c(cccc6n4OCC(N)=O)COC(=O)C(OC4CC(C)(O)C(N(C)C)C(C)O4)C2OC5)c2nc-3cs2)n1)C(N)=O (stereo not drawn) [Example 9]	4.0 µg/mL (≈ 2.58 µM)	2.0 µg/mL (≈ 1.29 µM)	0.125 µg/mL (≈ 0.0806 µM)
C=C(NC(=O)c1csc(-c2nc3c(cc2O)-c2nc(cs2)C(=O)NC(C(C)O)C(=O)NC(=C(C)OC)c2nc(cs2)C(=O)NC2c4nc(cs4)C(=O)NC(COC(=O)c4c5c6c(cccc6n4OCc4ccc(C(=O)OC6CCCCO6)cc4)COC(=O)C(OC4CC(C)(O)C(N(C)C)C(C)O4)C2OC5)c2nc-3cs2)n1)C(N)=O (stereo not drawn) [Example 10]	0.5 µg/mL (≈ 0.302 µM)	0.5 µg/mL (≈ 0.302 µM)	0.015 µg/mL (≈ 0.00906 µM)
C=C(NC(=O)c1csc(-c2nc3c(cc2O)-c2nc(cs2)C(=O)NC(C(C)O)C(=O)NC(=C(C)OC)c2nc(cs2)C(=O)NC2c4nc(cs4)C(=O)NC(COC(=O)c4c5c6c(cccc6n4OCc4ccc(C(=O)O)cc4)COC(=O)C(OC4CC(C)(O)C(N(C)C)C(C)O4)C2OC5)c2nc-3cs2)n1)C(N)=O (stereo not drawn) [Example 11]	>128 µg/mL	16 µg/mL (≈ 10.2 µM)	0.06 µg/mL (≈ 0.0382 µM)
C=C(NC(=O)c1csc(-c2nc3c(cc2O)-c2nc(cs2)C(=O)NC(C(C)O)C(=O)NC(=C(C)OC)c2nc(cs2)C(=O)NC2c4nc(cs4)C(=O)NC(COC(=O)c4c5c6c(cccc6n4OCOP(=O)(O)O)COC(=O)C(OC4CC(C)(O)C(N(C)C)C(C)O4)C2OC5)c2nc-3cs2)n1)C(N)=O (stereo not drawn) [Example 12]	1.0 µg/mL (≈ 0.646 µM)	0.25 µg/mL (≈ 0.162 µM)	0.015 µg/mL (≈ 0.00969 µM)
C=C(NC(=O)c1csc(-c2nc3c(cc2O)-c2nc(cs2)C(=O)NC(C(C)O)C(=O)NC(=C(C)OC)c2nc(cs2)C(=O)NC2c4nc(cs4)C(=O)NC(COC(=O)c4c5c6c(cccc6n4OCCCl)COC(=O)C(OC4CC(C)(O)C(N(C)C)C(C)O4)C2OC5)c2nc-3cs2)n1)C(N)=O.Cl (stereo not drawn) [Example 13]	0.03 µg/mL	0.015 µg/mL	0.003 µg/mL
C=C(NC(=O)c1csc(-c2nc3c(cc2O)-c2nc(cs2)C(=O)NC(C(C)O)C(=O)NC(=C(C)OC)c2nc(cs2)C(=O)NC2c4nc(cs4)C(=O)NC(COC(=O)c4c5c6c(cccc6n4OCCC[N+](C)(C)C)COC(=O)C(OC4CC(C)(O)C(N(C)C)C(C)O4)C2OC5)c2nc-3cs2)n1)C(N)=O (stereo not drawn) [Example 14]	2.0 µg/mL	>128 µg/mL	0.5 µg/mL
C=C(NC(=O)c1csc(-c2nc3c(cc2O)-c2nc(cs2)C(=O)NC(C(C)O)C(=O)NC(=C(C)OC)c2nc(cs2)C(=O)NC2c4nc(cs4)C(=O)NC(COC(=O)c4c5c6c(cccc6n4OC(=O)NCCCC)COC(=O)C(OC4CC(C)(O)C(N(C)C)C(C)O4)C2OC5)c2nc-3cs2)n1)C(N)=O (stereo not drawn) [Example 15]	0.03 µg/mL (≈ 0.0195 µM)	≦0.001 μg/mL	0.007 µg/mL (≈ 0.00456 µM)
C=C(NC(=O)c1csc(-c2nc3c(cc2O)-c2nc(cs2)C(=O)NC(C(C)O)C(=O)NC(=C(C)OC)c2nc(cs2)C(=O)NC2c4nc(cs4)C(=O)NC(COC(=O)c4c5c6c(cccc6n4OC(=O)NCCCN4CCN(C)CC4)COC(=O)C(OC4CC(C)(O)C(N(C)C)C(C)O4)C2OC5)c2nc-3cs2)n1)C(N)=O (stereo not drawn) [Example 16]	0.003 µg/mL (≈ 0.00185 µM)	0.003 µg/mL (≈ 0.00185 µM)	0.0005 µg/mL (≈ 0.000308 µM)
C=C(NC(=O)c1csc(-c2nc3c(cc2OC)-c2nc(cs2)C(=O)NC(C(C)O)C(=O)NC(=C(C)OC)c2nc(cs2)C(=O)NC2c4nc(cs4)C(=O)NC(COC(=O)c4c5c6c(cccc6n4OC)COC(=O)C(OC4CC(C)(O)C(N(C)C)C(C)O4)C2OC5)c2nc-3cs2)n1)C(N)=O (stereo not drawn) [Example 18]	0.015 µg/mL (≈ 0.0102 µM)	0.007 µg/mL (≈ 0.00478 µM)	0.001 µg/mL (≈ 0.000682 µM)
C=C(NC(=O)c1csc(-c2nc3c(cc2OCC(=O)OC)-c2nc(cs2)C(=O)NC(C(C)O)C(=O)NC(=C(C)OC)c2nc(cs2)C(=O)NC2c4nc(cs4)C(=O)NC(COC(=O)c4c5c6c(cccc6n4OCC(=O)OC)COC(=O)C(OC4CC(C)(O)C(N(C)C)C(C)O4)C2OC5)c2nc-3cs2)n1)C(N)=O (stereo not drawn) [Example 19]	0.125 µg/mL (≈ 0.079 µM)	0.06 µg/mL (≈ 0.0379 µM)	0.003 µg/mL (≈ 0.0019 µM)
C=C(NC(=O)c1csc(-c2nc3c(cc2OCC(=O)O)-c2nc(cs2)C(=O)NC(C(C)O)C(=O)NC(=C(C)OC)c2nc(cs2)C(=O)NC2c4nc(cs4)C(=O)NC(COC(=O)c4c5c6c(cccc6n4OCC(=O)O)COC(=O)C(OC4CC(C)(O)C(N(C)C)C(C)O4)C2OC5)c2nc-3cs2)n1)C(N)=O.O=C(O)C(F)(F)F (stereo not drawn) [Example 20]	>128 µg/mL	16 µg/mL	0.5 µg/mL
C=C(NC(=O)c1csc(-c2nc3c(cc2OCOP(=O)([O-])O)-c2nc(cs2)C(=O)NC(C(C)O)C(=O)NC(=C(C)OC)c2nc(cs2)C(=O)NC2c4nc(cs4)C(=O)NC(COC(=O)c4c5c6c(cccc6n4OCOP(=O)([O-])O)COC(=O)C(OC4CC(C)(O)C(N(C)C)C(C)O4)C2OC5)c2nc-3cs2)n1)C(N)=O.[Na+].[Na+] (stereo not drawn) [Example 22]	0.25 µg/mL	0.125 µg/mL	0.015 µg/mL
C=C(NC(=O)c1csc(-c2nc3c(cc2O)-c2nc(cs2)C(=O)NC(C(C)O)C(=O)NC(=C(C)OC)c2nc(cs2)C(=O)NC2c4nc(cs4)C(=O)NC(COC(=O)c4c5c6c(cccc6n4OC(C)=O)COC(=O)C(OC4CC(C)(O)C(N(C)C)C(C)O4)C2OC5)c2nc-3cs2)n1)C(N)=O (stereo not drawn) [Example 23]	0.25 µg/mL (≈ 0.169 µM)	0.03 µg/mL (≈ 0.0203 µM)	0.06 µg/mL (≈ 0.0406 µM)
C=C(NC(=O)c1csc(-c2nc3c(cc2OC(C)=O)-c2nc(cs2)C(=O)NC(C(C)O)C(=O)NC(=C(C)OC)c2nc(cs2)C(=O)NC2c4nc(cs4)C(=O)NC(COC(=O)c4c5c6c(cccc6n4O)COC(=O)C(OC4CC(C)(O)C(N(C)C)C(C)O4)C2OC5)c2nc-3cs2)n1)C(N)=O.Cl (stereo not drawn) [Example 24]	0.015 µg/mL	0.03 µg/mL	0.03 µg/mL
C=C(NC(=O)c1csc(-c2nc3c(cc2OCCN2CCOCC2)-c2nc(cs2)C(=O)NC(C(C)O)C(=O)NC(=C(C)OC)c2nc(cs2)C(=O)NC2c4nc(cs4)C(=O)NC(COC(=O)c4c5c6c(cccc6n4OCCN4CCOCC4)COC(=O)C(OC4CC(C)(O)C(N(C)C)C(C)O4)C2OC5)c2nc-3cs2)n1)C(N)=O (stereo not drawn) [Example 26]	0.25 µg/mL (≈ 0.15 µM)	1.0 µg/mL (≈ 0.601 µM)	0.03 µg/mL (≈ 0.018 µM)
C=C(NC(=O)c1csc(-c2nc3c(cc2O)-c2nc(cs2)C(=O)NC(C(C)O)C(=O)NC(=C(C)OC)c2nc(cs2)C(=O)NC2c4nc(cs4)C(=O)NC(COC(=O)c4c5c6c(cccc6n4OCCN4CCOCC4)COC(=O)C(OC4CC(C)(O)C(N(C)C)C(C)O4)C2OC5)c2nc-3cs2)n1)C(N)=O.O=C(O)C(F)(F)F (stereo not drawn) [Example 27]	0.06 µg/mL	0.25 µg/mL	0.015 µg/mL
